Assays:
lymphocytes = assay: IL-1Ra in supernatants of lymphocytes (rest of leukocytes after Percoll), ELISA; assay type: cell-based, human; details: rest of leukocytes after Percoll gradient, 50-25 µg/mL, 48 h, n = 2
Description: Similar donor dependent responses of cytokine release to GA have been reported for IL‐27.[38]
(§1) Figure S3. Cytokine level of IL-1Ra in supernatants of monocytes for active dendrimers and analogues evaluated by ELISA assay on primary human monocytes of healthy donors. 5×10^4 cells/200 µL in 96 well plates, were incubated with dendrimers or GA as a control for 48 h in presence or absence of LPS (100 ng/mL), in a range of concentrations (100-12.5 µg/mL) (mean ± SD, n = 3 different experiments).
Figure S4. Cytokine level of IL-1Ra in supernatants of monocytes enriched fraction (a) and the rest of leukocytes (b) for active dendrimers and analogues evaluated by ELISA assay.
Monocytes fraction was separated from whole PBMC by Percoll density gradient centrifugation. 5×10^4 cells/200 µL in 96 well plates were incubated with dendrimers or GA (50-25 µg/mL) as a control for 48 h (mean ± SD, n = 2 different experiments). […]

[1] = system: IL-1Ra release from human primary monocytes; assay: IL-1Ra release from human primary monocytes, immunoassay (ELISA) of supernatants; assay type: cell-based; design: key: +: Ability to induce IL‐1Ra on primary monocytes after 48 h of incubation in the presence of 25–50 μg mL^−1 compound; Ability to induce IL‐1Ra on primary monocytes after 48 h of incubation in the presence of 25–50 μg mL^−1 compound; details: Table 1, 48 h, 25–50 μg mL^−1 compound
Description: As an activity screen we focused on interleukin‐1 receptor antagonist (IL‐1Ra), a cytokine released by circulating antigen presenting cells (APC) in response to GA.[15, 35] […] To test our dendrimers, we quantified by immunoassay the release of IL‐1Ra from human primary monocytes of healthy donors, an easily accessible type of APC, stimulated or not by addition of lipopolysaccharide (LPS), which in our hands provided a reliable read‐out.[15] We tested at defined weight/volume (25 and 50 μg mL^−1 compound as typically reported for GA)[15, 35] to account for a possible activity increase with MW as often observed with dendrimers when using molarity. In the initial screen the levels of secreted IL‐1Ra remained below 1 ng mL^−1 for all the smaller test compounds as well as with the linear peptide analogs of GA.
Figure 2 Cytokine level of IL‐1Ra in supernatants of primary human monocytes of healthy donors treated with peptide dendrimers, evaluated by ELISA (bars, left vertical axis) and mRNA levels (▴, right vertical axis). […] For mRNA levels evaluation, 2×10^6 cells 3 mL^−1 in 6 well plates were incubated with 50 μg mL^−1 dendrimer or GA for 18 h. […]
Enzyme-linked immunosorbent assay (ELISA)
Monocytes (5×10^4 cells/200 μL well; 96-well plates) were preincubated for 1 h with or without compounds in RPMI-1640 medium supplemented with 10% heat-inactivated FBS, 50 μg/mL streptomycin, 50 U/mL penicillin, 2 mM L-glutamine, and 5 μg/mL polymyxin B sulfate and then cultured for 48 h in the presence or absence of LPS (100 ng/mL) (2). The production of IL-1Ra was measured in culture supernatants by commercially available enzyme immunoassay according to manufacture protocol.
as §1, with “S2.” for “S3.”, “(50-25” for “(100-12.5”, “2” for “3”, “experiments). The results are present as the difference between each sample and the non-treated sample to take into account the difference between base line for each donor.” for “experiments).”
Figure S3. Cytokine level of IL-1Ra in supernatants of monocytes for active dendrimers and […]
presence or absence of LPS (100 ng/mL), in a range of concentrations (100-12.5 µg/mL) (mean ± SD, n = 3 different experiments). […]

[2] = cited from earlier work
[3] = Circular dichroism spectroscopy; assay type: physicochemical; details: 100 μg/mL, 8 mM phosphate buffer pH 7.2/7.4
Description: In terms of stereochemistry, activity was lost with D‐enantiomers D‐1 and D‐4, similar to the inactivity reported for D‐enantiomeric GA.[2]
Circular dichroism (CD) experiments were measured on a Jasco J-715 Spectropolarimeter. All the experiments were performed using Hellma Suprasil 110-QS 0.1 cm cuvettes. For each peptide, the measurements were performed in phosphate buffer (PB, pH=7.2, 8 mM) and in the presence of 5 mM dodecylphosphocholine. The concentration of the peptides was 100.0 μg/mL and each sample was measured using one accumulation. The scan rate was 10 nm/min, pitch 0.5 nm, response 16 sec and bandwidth 1.0 nm. The nitrogen flow was kept >8.5 L/min. After each measurement, the cuvettes were washed successively with 1 M HCl, milli-Q H2O and PB buffer. The baseline was recorded under the same conditions and subtracted manually.
Figure S12. Circular dichroism spectra of GA, 1 and 4 (100 μg/mL) in 8 mM phosphate buffer at pH 7.4 (a) or in presence of 5 mM dodecylphosphocholine. Percentage of α-helix and β- sheet was processed by Dichroweb using the CONTIN analysis program and reference set 3.
(1 picture or pasted object on this page, not shown here)

In the case of “Glatiramer acetate [GA, reference compound]”, the “induction of IL-1Ra in lymphocytes” value (lymphocytes) is listed as “did not occur”, the “Act. (ability to induce IL-1Ra)” value [1] is listed as “+” and the “crossing of the BBB” value [2] is listed as “does not cross the BBB”. For the same substance, the “conformation by CD spectra” value [3] was “α‐helical”.

Reference: publication PMC9298260, “An Immunomodulatory Peptide Dendrimer Inspired from Glatiramer Acetate” (Angewandte Chemie (International Ed. in English), 2021)
